According to patent publication US8440628B2, “Medical compositions containing ghrelin” (Daiichi Sankyo Company, Limited, priority 2002, dated 2013):
Like-named read-outs stand apart in the source and are kept apart here.

Tests used:
[1] = Stability of human ghrelin in Britton-Robinson buffer solutions of various pH at 40°C (Example 3); format: physicochemical; settings: pH of 3.1, 4.0, 5.0 and 6.0, 40±1°C, storage time not stated, target value 85%
Procedure: Human ghrelin, which is one of the ghrelins, was dissolved in the Britton-Robinson buffer solutions which is adjusted by combining 0.04M phosphoric acid-acetic acid-boric acid aqueous solution and 0.2M sodium hydrate aqueous solution in appropriate ratio, having pH of 2.1, 3.1, 4.0, 5.0, 6.0, 7.0 and 7.9 to obtain an aqueous solution containing human ghrelin in the concentration of about 0.15 μmol/mL (0.5 mg/mL). The obtained solution was filled in brownish glass ampoules and the ampoules were sealed with fire. For the calculation of kinetic constant, the certain degrees of degradation products have to be occurred in the aqueous solution of the ghrelins, and therefore, the ampoules were stored at 40±1° C., which was severe conditions for storage. The concentration (residual ratio) of human ghrelin was conducted by HPLC with time. At the same time, the pH of the solution was measured and it was confirmed that there was no significant changes of pH in solution.
The kinetic constants in each pH solution were calculated from the sequential change of the residual ratio, and the results were shown in FIG. 2.

[2] = format: physicochemical
Procedure: Human ghrelin, which is one of the ghrelins, was dissolved in the 0.05M glycine hydrochloride buffer solutions (pH 3.5) to obtain an aqueous solution containing human ghrelin with following five concentrations, which are applicable for medical usage.
0.03 nmol/mL (0.1 μg/mL); 0.3 nmol/mL (1.0 μg/mL);
3.0 nmol/mL (10.0 μg/mL); 0.3 μmol/mL (1.0 mg/mL);
Each solutions were stored at 25±2° C. for 24 hours, and after storage, the HPLC analyses of each solutions were conducted to calculate the residual ratios from the concentration of human ghrelin. The changes of pH value were also examined to confirm no significant changes of pH in solutions occurred.
The residual ratio of the solution before storage was referred to as 100%, and the residual ratio of each solution after storage and the changes of pH value of each solution were summarized in the following Table 4.

[3] = Stability of human ghrelin in pH-adjusted purified water at 25°C (Example 7); format: physicochemical; settings: for Peak area ratio to total peak area: 25±2°C
Procedure: Human ghrelin was dissolved in the purified water with about 0.03 μmol/mL (0.1 mg/mL). […] This solution was divided into quarter, and one portion was kept alone and the pH values of the remaining three portions were adjusted to pH 1.8 (with 17 mM of hydrochloric acid), pH 3.9 (with 0.20 mM of hydrochloric acid) and pH 7.8 (with 0.24 mM of sodium hydroxide) respectively, by adding along with hydrochloric acid or sodium hydroxide aqueous solution.

[4] = Stability of human ghrelin in 0.1M HCl and Mcllvain buffer solutions of various pH at 25°C (Example 2, HPLC peak area ratio); format: physicochemical
Procedure: Human ghrelin was dissolved in the following aqueous solutions in the concentration of about 0.15 μmol/mL (0.5 mg/mL).
0.1M HCl aqueous solution (pH: 1.1)
The pH was adjusted with 0.1M citric aqueous acid and 0.2M dibasic sodium phosphate aqueous solution.
Each solution were stored at 25±2° C. for 8, 24, 48 and 72 hours respectively, and the obtained solutions were detected by HPLC analysis in comparison to the solutions before storage. […] No significant changes of pH in solution before storage and after storage were observed.

[5] = h. ghrelin 0.03 nmol/mL in 0.05M glycine hydrochloride buffer (pH 3.5), after storage for 25° C./24 hours
[6] = h. ghrelin 0.03 nmol/mL in 0.05M glycine hydrochloride buffer (pH 3.5), just after preparation
[7] = h. ghrelin 0.3 nmol/mL in 0.05M glycine hydrochloride buffer (pH 3.5), after storage for 25° C./24 hours
[8] = h. ghrelin 0.3 nmol/mL in 0.05M glycine hydrochloride buffer (pH 3.5), just after preparation
[9] = h. ghrelin 3.0 nmol/mL in 0.05M glycine hydrochloride buffer (pH 3.5), after storage for 25° C./24 hours
[10] = h. ghrelin 3.0 nmol/mL in 0.05M glycine hydrochloride buffer (pH 3.5), just after preparation
[11] = h. ghrelin 0.3 μmol/mL in 0.05M glycine hydrochloride buffer (pH 3.5), after storage for 25° C./24 hours
[12] = h. ghrelin 0.3 μmol/mL in 0.05M glycine hydrochloride buffer (pH 3.5), just after preparation
[13] = h. ghrelin 3 μmol/mL in 0.05M glycine hydrochloride buffer (pH 3.5), after storage for 25° C./24 hours
[14] = h. ghrelin 3 μmol/mL in 0.05M glycine hydrochloride buffer (pH 3.5), just after preparation
[15] = human ghrelin 0.5 mg/mL in 0.1M HCl aqueous solution, pH 1, 25±2°C, 8 hr. after
[16] = human ghrelin 0.5 mg/mL in 0.1M HCl aqueous solution, pH 1, 25±2°C, 24 hr. after
[17] = human ghrelin 0.5 mg/mL in 0.1M HCl aqueous solution, pH 1, 25±2°C, 48 hr. after
[18] = human ghrelin 0.5 mg/mL in 0.1M HCl aqueous solution, pH 1, 25±2°C, 72 hr. after
[19] = human ghrelin 0.5 mg/mL in 0.1M HCl aqueous solution, pH 1, 25±2°C, before storage
[20] = human ghrelin 0.5 mg/mL in Mcllvain buffer, pH 2, 25±2°C, 8 hr. after
[21] = human ghrelin 0.5 mg/mL in Mcllvain buffer, pH 2, 25±2°C, 24 hr. after
[22] = human ghrelin 0.5 mg/mL in Mcllvain buffer, pH 2, 25±2°C, 48 hr. after
[23] = human ghrelin 0.5 mg/mL in Mcllvain buffer, pH 2, 25±2°C, 72 hr. after
[24] = human ghrelin 0.5 mg/mL in Mcllvain buffer, pH 2, 25±2°C, before storage
[25] = human ghrelin 0.5 mg/mL in Mcllvain buffer, pH 3, 25±2°C, 8 hr. after

Residual ratio [1]: more than 87%
Residual ratio [2, 5]: 62%
pH [2, 5]: 3.5
Residual ratio [2, 6]: 100%
pH [2, 6]: 3.4
Residual ratio [2, 7]: 98%
pH [2, 7]: 3.5
Residual ratio [2, 8]: 100%
pH [2, 8]: 3.5
Residual ratio [2, 9]: 98%
pH [2, 9]: 3.6
Residual ratio [2, 10]: 100%
pH [2, 10]: 3.5
Residual ratio [2, 11]: 101%
pH [2, 11]: 3.3
Residual ratio [2, 12]: 100%
pH [2, 12]: 3.4
Residual ratio [2, 13]: 101%
pH [2, 13]: 3.3
Residual ratio [2, 14]: 100%
pH [2, 14]: 3.4
Peak area ratio to total peak area ([3]; human ghrelin 0.1 mg/mL in purified water adjusted to pH 1.8 with hydrochloric acid, 1 day after): 97.68%
Peak area ratio to total peak area ([3]; human ghrelin 0.1 mg/mL in purified water adjusted to pH 1.8 with hydrochloric acid, 1 day after, listed as human ghrelin): less than 98%
Peak area ratio to total peak area ([3]; human ghrelin 0.1 mg/mL in purified water adjusted to pH 1.8 with hydrochloric acid, 3 days after): 95.01%
Peak area ratio to total peak area ([3]; human ghrelin 0.1 mg/mL in purified water adjusted to pH 1.8 with hydrochloric acid, before storage): 99.16%
Peak area ratio to total peak area ([3]; human ghrelin 0.1 mg/mL in purified water adjusted to pH 3.9 with hydrochloric acid, 1 day after): 99.19%
Peak area ratio to total peak area ([3]; human ghrelin 0.1 mg/mL in purified water adjusted to pH 3.9 with hydrochloric acid, 3 days after): 99.14%
Peak area ratio to total peak area ([3]; human ghrelin 0.1 mg/mL in purified water adjusted to pH 3.9 with hydrochloric acid, before storage): 99.21%
Peak area ratio to total peak area ([3]; human ghrelin 0.1 mg/mL in purified water adjusted to pH 7.8 with sodium hydroxide, 1 day after): 94.78%
Peak area ratio to total peak area ([3]; human ghrelin 0.1 mg/mL in purified water adjusted to pH 7.8 with sodium hydroxide, 1 day after, listed as human ghrelin): less than 98%
Peak area ratio to total peak area ([3]; human ghrelin 0.1 mg/mL in purified water adjusted to pH 7.8 with sodium hydroxide, 3 days after): 87.84%
Peak area ratio to total peak area ([3]; human ghrelin 0.1 mg/mL in purified water adjusted to pH 7.8 with sodium hydroxide, before storage): 98.85%
Peak area ratio to total peak area ([3]; human ghrelin 0.1 mg/mL in purified water, pH 4.7 (not adjusted), 1 day after): 99.12%
Peak area ratio to total peak area ([3]; human ghrelin 0.1 mg/mL in purified water, pH 4.7 (not adjusted), 3 days after): 98.94%
Peak area ratio to total peak area ([3]; human ghrelin 0.1 mg/mL in purified water, pH 4.7 (not adjusted), before storage): 99.20%
pH of the solution ([3]; human ghrelin dissolved in purified water, about 0.03 μmol/mL (0.1 mg/mL)): 4.7
Peak area ratio to total peak area [4, 15]: 94.40%
pH observed [4, 15]: 1.2
Peak area ratio to total peak area [4, 16]: 86.00%
pH observed [4, 16]: 1.2
Peak area ratio to total peak area [4, 17]: 74.62%
pH observed [4, 17]: 1.2
Peak area ratio to total peak area [4, 18]: 65.04%
pH observed [4, 18]: 1.2
Peak area ratio to total peak area [4, 19]: 98.89%
pH observed [4, 19]: 1.1
Peak area ratio to total peak area [4, 20]: 98.82%
pH observed [4, 20]: 2.0
Peak area ratio to total peak area [4, 21]: 98.24%
pH observed [4, 21]: 2.0
Peak area ratio to total peak area [4, 22]: 97.35%
pH observed [4, 22]: 2.0
Peak area ratio to total peak area ([4]; human ghrelin 0.5 mg/mL in Mcllvain buffer, pH 2, 25±2°C, 48 hr. after, listed as human ghrelin): less than 98%
Peak area ratio to total peak area [4, 23]: 96.46%
pH observed [4, 23]: 2.0
Peak area ratio to total peak area [4, 24]: 99.07%
pH observed [4, 24]: 2.0
Peak area ratio to total peak area [4, 25]: 98.98%
pH observed [4, 25]: 3.1
Peak area ratio to total peak area ([4]; human ghrelin 0.5 mg/mL in Mcllvain buffer, pH 3, 25±2°C, 24 hr. after): 98.77%
SMILES: CCCCCCCC(=O)OC[C@H](NC(=O)[C@H](CO)NC(=O)CN)C(=O)N[C@@H](Cc1ccccc1)C(=O)N[C@@H](CC(C)C)C(=O)N[C@@H](CO)C(=O)N1CCC[C@H]1C(=O)N[C@@H](CCC(=O)O)C(=O)N[C@@H](Cc1c[nH]cn1)C(=O)N[C@@H](CCC(N)=O)C(=O)N[C@@H](CCCNC(=N)N)C(=O)N[C@H](C(=O)N[C@@H](CCC(N)=O)C(=O)N[C@@H](CCC(N)=O)C(=O)N[C@@H](CCCNC(=N)N)C(=O)N[C@@H](CCCCN)C(=O)N[C@@H](CCC(=O)O)C(=O)N[C@@H](CO)C(=O)N[C@@H](CCCCN)C(=O)N[C@@H](CCCCN)C(=O)N1CCC[C@H]1C(=O)N1CCC[C@H]1C(=O)N[C@@H](C)C(=O)N[C@@H](CCCCN)C(=O)N[C@@H](CC(C)C)C(=O)N[C@@H](CCC(N)=O)C(=O)N1CCC[C@H]1C(=O)N[C@@H](CCCNC(=N)N)C(=O)O)C(C)C [Human ghrelin]
